Test results: patent US11912703B2, “6-azaindole compounds” (BRISTOL-MYERS SQUIBB COMPANY, priority 2017, dated 2024)
Where two headings read alike, the source gives them in different places.

Legend:
human TLR7 = human TLR7 (Homo sapiens (Human), UniProt Q9NYK1); assay: TLR7 inhibition reporter assay (HEK-Blue SEAP); assay type: cell-based; conditions: HEK-Blue cells overexpressing human TLR7, gardiquimod 7.5 μM stimulation
Method: HEK-Blue™-cells (Invivogen) overexpressing human TLR7, TLR8 or TLR9 receptors were used for screening inhibitors of these receptors using an inducible SEAP (secreted embryonic alkaline phosphatase) reporter gene under the control of the IFN-β minimal promoter fused to five NF-κB and AP-1-binding sites. Briefly, cells are seeded into Greiner 384 well plates (15000 cells per well for TLR7, 20,000 for TLR8 and 25,000 for TLR9) and then treated with test compounds in DMSO to yield a final dose response concentration range of 0.05 nM-50 μM. After a 30 minute compound pre-treatment at room temperature, the cells are then stimulated with a TLR7 ligand (gardiquimod at a final concentration of 7.5 μM), TLR8 ligand (R848 at a final concentration of 15.9 μM) or TLR9 ligand (ODN2006 at a final concentration of 5 nM) to activate NF-κB and AP-1 which induce the production of SEAP. After a 22 hour incubation at 37° C., 500 CO2, SEAP levels are determined with the addition of HEK-Blue™ Detection reagent (Invivogen), a cell culture medium that allows for detection of SEAP, according to manufacturer's specifications.

human TLR8 = human TLR8 (Homo sapiens (Human), UniProt Q9NR97); assay: TLR8 inhibition reporter assay (HEK-Blue SEAP);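 note: SEAP driven by IFN-β minimal promoter with five NF-κB and AP-1 sites, compounds tested 0.05 nM to 50 µM, 22 h incubation, inhibition relative to agonist plus DMSO wells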
human TLR8, sequence (Q9NR97 27-1041): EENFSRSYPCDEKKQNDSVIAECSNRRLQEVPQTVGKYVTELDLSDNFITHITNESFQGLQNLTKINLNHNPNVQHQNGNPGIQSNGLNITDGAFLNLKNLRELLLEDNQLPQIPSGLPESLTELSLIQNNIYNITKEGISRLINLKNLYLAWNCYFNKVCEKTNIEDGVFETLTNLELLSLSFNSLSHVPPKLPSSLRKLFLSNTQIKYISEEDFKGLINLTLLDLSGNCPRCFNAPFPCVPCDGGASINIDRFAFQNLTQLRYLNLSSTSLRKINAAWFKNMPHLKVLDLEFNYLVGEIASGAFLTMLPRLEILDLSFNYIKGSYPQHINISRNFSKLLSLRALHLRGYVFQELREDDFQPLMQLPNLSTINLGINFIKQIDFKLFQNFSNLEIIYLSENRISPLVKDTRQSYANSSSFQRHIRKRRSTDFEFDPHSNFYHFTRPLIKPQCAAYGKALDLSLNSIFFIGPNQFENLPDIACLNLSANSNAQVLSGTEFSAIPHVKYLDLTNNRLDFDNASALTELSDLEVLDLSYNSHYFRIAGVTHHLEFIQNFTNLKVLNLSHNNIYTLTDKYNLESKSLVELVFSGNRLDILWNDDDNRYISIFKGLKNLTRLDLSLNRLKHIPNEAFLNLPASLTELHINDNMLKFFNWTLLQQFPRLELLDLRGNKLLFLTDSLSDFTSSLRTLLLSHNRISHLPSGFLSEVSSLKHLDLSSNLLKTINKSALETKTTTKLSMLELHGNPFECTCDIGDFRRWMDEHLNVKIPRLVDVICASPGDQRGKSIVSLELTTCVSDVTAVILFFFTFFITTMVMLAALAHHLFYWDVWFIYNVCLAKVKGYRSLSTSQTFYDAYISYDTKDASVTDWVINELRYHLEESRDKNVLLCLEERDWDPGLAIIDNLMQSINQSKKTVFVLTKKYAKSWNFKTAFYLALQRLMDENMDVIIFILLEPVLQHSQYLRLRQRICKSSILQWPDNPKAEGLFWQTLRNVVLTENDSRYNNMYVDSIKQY

human TLR9 = human TLR9 (Homo sapiens (Human), UniProt Q9NR96); assay: TLR9 inhibition reporter assay (HEK-Blue SEAP);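 note: SEAP driven by IFN-β minimal promoter carrying five NF-κB and AP-1 sites, 22 h at 37 °C, compounds 0.05 nM–50 µM, inhibition scaled between agonist-plus-DMSO and reference-inhibitor wells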
human TLR9, sequence (Q9NR96 26-1032): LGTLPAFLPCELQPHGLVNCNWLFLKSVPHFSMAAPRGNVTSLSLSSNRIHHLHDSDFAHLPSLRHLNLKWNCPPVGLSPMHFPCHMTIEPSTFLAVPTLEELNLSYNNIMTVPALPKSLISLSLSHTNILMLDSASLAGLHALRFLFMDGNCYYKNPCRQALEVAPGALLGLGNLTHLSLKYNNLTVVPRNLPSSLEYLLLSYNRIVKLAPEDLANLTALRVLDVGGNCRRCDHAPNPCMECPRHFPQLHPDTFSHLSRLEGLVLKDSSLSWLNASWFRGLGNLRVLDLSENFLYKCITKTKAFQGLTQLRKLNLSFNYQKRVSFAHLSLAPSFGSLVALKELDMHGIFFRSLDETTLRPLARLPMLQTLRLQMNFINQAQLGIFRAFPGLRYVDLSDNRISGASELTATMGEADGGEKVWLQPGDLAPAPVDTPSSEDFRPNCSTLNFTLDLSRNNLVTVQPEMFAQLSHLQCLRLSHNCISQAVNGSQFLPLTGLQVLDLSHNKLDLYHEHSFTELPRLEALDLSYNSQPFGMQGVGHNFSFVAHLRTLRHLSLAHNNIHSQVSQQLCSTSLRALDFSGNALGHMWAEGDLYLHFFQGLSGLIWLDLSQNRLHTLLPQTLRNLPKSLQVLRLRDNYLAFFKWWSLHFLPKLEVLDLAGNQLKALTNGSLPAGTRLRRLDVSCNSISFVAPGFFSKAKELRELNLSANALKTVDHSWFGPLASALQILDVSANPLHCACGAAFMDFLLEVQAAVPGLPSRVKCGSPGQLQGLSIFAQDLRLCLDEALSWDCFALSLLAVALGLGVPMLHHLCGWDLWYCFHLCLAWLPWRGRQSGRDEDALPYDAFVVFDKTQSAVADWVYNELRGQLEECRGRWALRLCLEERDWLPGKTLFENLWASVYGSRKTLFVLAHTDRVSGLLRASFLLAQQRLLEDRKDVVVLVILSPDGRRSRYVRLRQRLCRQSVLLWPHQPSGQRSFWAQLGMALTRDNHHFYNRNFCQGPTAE

[1] = read-out: TLR8 IC50, HEK-Blue cells overexpressing human TLR8, R848 15.9 μM stimulation, SEAP reporter
[2] = read-out: TLR9 IC50, HEK-Blue cells overexpressing human TLR9, ODN2006 5 nM stimulation, SEAP reporter

human TLR7, sequence (Q9NYK1 27-1049): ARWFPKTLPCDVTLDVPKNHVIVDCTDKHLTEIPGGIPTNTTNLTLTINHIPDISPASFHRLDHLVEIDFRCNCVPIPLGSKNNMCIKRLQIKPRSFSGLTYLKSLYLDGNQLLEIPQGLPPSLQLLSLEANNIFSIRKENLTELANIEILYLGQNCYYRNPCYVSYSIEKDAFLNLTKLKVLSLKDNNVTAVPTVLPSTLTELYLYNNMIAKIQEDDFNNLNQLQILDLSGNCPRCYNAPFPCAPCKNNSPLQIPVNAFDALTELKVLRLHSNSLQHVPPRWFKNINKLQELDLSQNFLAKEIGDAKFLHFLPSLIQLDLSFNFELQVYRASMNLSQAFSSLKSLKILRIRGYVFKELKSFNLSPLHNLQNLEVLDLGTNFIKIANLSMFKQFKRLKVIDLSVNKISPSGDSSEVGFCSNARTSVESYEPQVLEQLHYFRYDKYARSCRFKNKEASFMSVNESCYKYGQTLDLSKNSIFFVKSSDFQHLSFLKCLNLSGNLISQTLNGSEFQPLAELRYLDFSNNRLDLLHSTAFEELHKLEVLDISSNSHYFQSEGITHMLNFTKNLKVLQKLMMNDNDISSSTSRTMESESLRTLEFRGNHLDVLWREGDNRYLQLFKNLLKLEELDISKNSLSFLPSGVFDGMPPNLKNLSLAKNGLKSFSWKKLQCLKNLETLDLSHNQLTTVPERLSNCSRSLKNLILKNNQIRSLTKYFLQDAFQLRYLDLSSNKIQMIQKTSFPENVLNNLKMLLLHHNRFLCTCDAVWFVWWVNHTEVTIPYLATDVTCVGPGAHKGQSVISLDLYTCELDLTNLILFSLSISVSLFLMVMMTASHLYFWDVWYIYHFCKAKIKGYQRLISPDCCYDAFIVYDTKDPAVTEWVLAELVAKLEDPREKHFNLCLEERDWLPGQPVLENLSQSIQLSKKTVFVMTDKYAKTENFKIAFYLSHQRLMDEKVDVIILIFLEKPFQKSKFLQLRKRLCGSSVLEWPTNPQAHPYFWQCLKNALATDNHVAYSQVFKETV

| Compound | IC50 (human TLR7) | IC50 (human TLR8; [1]) | IC50 (human TLR9; [2]) | IC50 (human TLR8) | IC50 (human TLR9) |
| --- | --- | --- | --- | --- | --- |
| COc1cc(-c2[nH]c3cnc(N4CCN(C5CCCOC5)CC4)c(F)c3c2C(C)C)cn2ncnc12 (single isomer, unassigned) [Example 386] | 26 nM | 6.8 nM | > 50000 nM |  |  |
| COc1cc(-c2[nH]c3cnc(N4CCN(C5CCCOC5)CC4)c(F)c3c2C(C)C)cn2ncnc12 (single isomer, unassigned) [Example 387] | 33 nM | 13 nM | > 50000 nM |  |  |
| COc1cc(-c2[nH]c3cnc(C4CCNCC4)c(F)c3c2C(C)C)cn2ncnc12 [Example 3, 6-(4-fluoro-3-isopropyl-5-(piperidin-4-yl)-1H-pyrrolo[2,3-c]pyridin-2-yl)-8-methoxy-[1,2,4]triazolo[1,5-a]pyridine] | 3.2 nM | 11 nM | 1580 nM |  |  |
| Cc1cc(-c2[nH]c3cnc(C4CCNCC4)cc3c2C(C)C)cn2ncnc12 [Example 4, 6-(3-isopropyl-5-(piperidin-4-yl)-1h-pyrrolo[2,3-c]pyridin-2-yl)-8-methyl-[1,2,4]triazolo [1,5-a]pyridine] |  | 973 nM | 13100 nM |  |  |
| COc1cc(-c2[nH]c3cnc(N4CCNCC4)c(Cl)c3c2C(C)C)cn2ncnc12 [Example 6, 6-(4-chloro-3-isopropyl-5-(piperazin-1-yl)-1H-pyrrolo[2,3-c]pyridin-2-yl)-8-methoxy-[1,2,4]triazolo[1,5-a]pyridine] | 0.61 nM |  |  | 1.4 nM | 664 nM |
| Cc1c(-c2[nH]c3cnc(C4CCNCC4)c(F)c3c2C(C)C)cn2ncnc2c1C [Example 13] | 6.5 nM | 6.8 nM | 2780 nM |  |  |
| COc1cc(-c2[nH]c3cnc(C4CCN(CCS(C)(=O)=O)CC4)c(F)c3c2C(C)C)cn2ncnc12 [Example 14] | 3.9 nM | 3.4 nM | 13000 nM |  |  |
| Cc1c(-c2[nH]c3cnc(C4CCN(CC(N)=O)CC4)c(F)c3c2C(C)C)cn2ncnc2c1C [Example 15] | 3.5 nM | 1.6 nM | 13500 nM |  |  |
| COc1cc(-c2[nH]c3cnc(C4CCN(C5COC5)CC4)c(C)c3c2C(C)C)cn2ncnc12 [Example 16] | 4.7 nM | 26 nM | 1290 nM |  |  |
| Cc1c(-c2[nH]c3cnc(C4CCN(CC(=O)N(C)C)CC4)c(F)c3c2C(C)C)cn2ncnc2c1C [Example 22] | 6.2 nM | 1.8 nM |  |  |  |
| COc1cc(-c2[nH]c3cnc(C4CCC(N5CCC5)CC4)c(F)c3c2C(C)C)cn2ncnc12 (stereo not drawn) [Example 46] | 0.98 nM | 1.6 nM |  |  |  |
| COc1cc(-c2[nH]c3cnc(N4CCC(N(C)CC(C)(C)C)CC4)c(F)c3c2C(C)C)cn2ncnc12 [Example 47] |  | 1.5 nM | 2580 nM |  |  |
| COc1cc(-c2[nH]c3cnc(C4CCC(N(C)C(C)C)C4)cc3c2C(C)C)cn2ncnc12 (stereo not drawn) [Example 63] |  |  | 2990 nM |  |  |
| Cc1cc(-c2[nH]c3cnc(N4CCC(N(C)C(C)C)CC4)c(F)c3c2C(C)C)cn2ncnc12 [Example 68] |  |  | 5290 nM |  |  |
| COc1cc(-c2[nH]c3cnc(C4CCC(NC5(C)COC5)CC4)c(F)c3c2C(C)C)cn2ncnc12 (stereo not drawn) [Example 105] |  | 0.59 nM | 2250 nM |  |  |
| COc1cc(-c2[nH]c3cnc(C4CCC(NC5CCOCC5)CC4)c(F)c3c2C(C)C)cn2ncnc12 (stereo not drawn) [Example 160] |  |  | 1280 nM |  |  |
| COc1cc(-c2[nH]c3cnc(C4CCC(NC5(C)COC5)CC4)c(F)c3c2C(C)C)cn2ncnc12 (stereo not drawn) [Example 192] |  | 3.9 nM | 3140 nM |  |  |
| COc1cc(-c2[nH]c3cnc(N4CCN(CCS(C)(=O)=O)CC4)c(F)c3c2C(C)C)cn2ncnc12 [Example 362] | 4.9 nM | 4 nM |  |  |  |
| COc1cc(-c2[nH]c3cnc(N4CCN(CC(=O)N5CCOCC5)CC4)c(F)c3c2C(C)C)cn2ncnc12 [Example 363] |  | 3.7 nM | 43700 nM |  |  |

Now from value to molecule:

| IC50 (human TLR7) | IC50 (human TLR8; [1]) | IC50 (human TLR9; [2]) | IC50 (human TLR8) | IC50 (human TLR9) | Compound |
| --- | --- | --- | --- | --- | --- |
| 4.7 nM | 89 nM | 550 nM |  |  | COc1cc(-c2[nH]c3cnc(C4CCNCC4)c(C)c3c2C(C)C)cn2ncnc12 [Example 1, 6-(3-isopropyl-4-methyl-5-(piperidin-4-yl)-1H-pyrrolo[2,3-c]pyridin-2-yl)-8-methoxy-[1,2,4] triazolo[1,5-a]pyridine] |
| 1.6 nM | 14 nM | 398 nM |  |  | CNC(=O)CN1CCC(c2ncc3[nH]c(-c4cc(OC)c5ncnn5c4)c(C(C)C)c3c2C)CC1 [Example 2, 2-(4-(3-isopropyl-2-(8-methoxy-[1,2,4]triazolo[1,5-a]pyridin-6-yl)-4-methyl-1H-pyrrolo[2,3-c]pyridin-5-yl)piperidin-1-yl)-N-methylacetamide] |
| 9.5 nM | 100 nM | 250 nM |  |  | Cc1cc(-c2[nH]c3cnc(C4CCN(C(=O)CN(C)C)CC4)cc3c2C(C)C)cn2ncnc12 [Example 5, 2-(dimethylamino)-1-(4-(3-isopropyl-2-(8-methyl-[1,2,4]triazolo[1,5-a]pyridine-6-yl)-1H-pyrrolo[2,3-c]pyridin-5-yl)piperidin-1-yl)ethan-1-one] |
| 1.5 nM | 0.56 nM | 168 nM |  |  | COc1cc(-c2[nH]c3cnc(N4CCNCC4)cc3c2C(C)C)cn2ncnc12 [Example 7, 6-(3-isopropyl-5-(piperazin-1-yl)-1H-pyrrolo[2,3-c]pyridin-2-yl)-8-methoxy-[1,2,4]triazolo [1,5-a]pyridine] |
| 6640 nM | 15900 nM | 258 nM |  |  | CNCCN1CCC(c2cc3c(C)c(-c4ccc(OC)c(OC)c4)[nH]c3cn2)CC1 [Example 8] |
| 551 nM | 8220 nM | 26 nM |  |  | COc1ccc(-c2[nH]c3cnc(C4CCN(C5CCN(CC(C)C)CC5)CC4)cc3c2C)cc1OC [Example 9] |
| 5.6 nM | 19 nM | 896 nM |  |  | CNCC(=O)N1CCC(c2ncc3[nH]c(-c4cc(OC)c5ncnn5c4)c(C(C)C)c3c2F)CC1 [Example 10] |
| 1.6 nM | 8.3 nM | 91 nM |  |  | COc1cc(-c2[nH]c3cnc(C4CCN(CC(N)=O)CC4)c(C)c3c2C(C)C)cn2ncnc12 [Example 11] |
| 53 nM | 273 nM | 866 nM |  |  | CNCC(=O)N1CCC(c2ncc3[nH]c(-c4cc(OC)c5ncnn5c4)c(C(C)C)c3c2C)CC1 [Example 12] |
|  | 21 nM | 417 nM |  |  | COc1cc(-c2[nH]c3cnc(C4CCC(N5CC(OC)C5)CC4)c(C)c3c2C(C)C)cn2ncnc12 (stereo not drawn) [Example 62] |
|  | 0.77 nM | 694 nM |  |  | COc1cc(-c2[nH]c3cnc(C4CCC(NCC(C)(C)O)CC4)c(F)c3c2C(C)C)cn2ncnc12 (stereo not drawn) [Example 74] |
|  |  | 506 nM |  |  | COc1cc(-c2[nH]c3cnc(C4CCC(N(C)C(C)C)C4)cc3c2C(C)C)cn2ncnc12 (stereo not drawn) [Example 145] |
|  | 9.6 nM | 664 nM |  |  | COc1cc(-c2[nH]c3cnc(C4CCC(N5CC(OC)C5)CC4)c(C)c3c2C(C)C)cn2ncnc12 (stereo not drawn) [Example 180] |
|  |  | 575 nM |  |  | COc1cc(-c2[nH]c3cnc(C4CCC(NC5CCOCC5)CC4)c(F)c3c2C(C)C)cn2ncnc12 (stereo not drawn) [Example 194] |
|  | 3 nM | 577 nM |  |  | COc1cc(-c2[nH]c3cnc(C4CCC(NCC(C)(C)O)CC4)c(F)c3c2C(C)C)cn2ncnc12 (stereo not drawn) [Example 195] |
|  | 13 nM | 260 nM |  |  | COc1cc(-c2[nH]c3cnc(C4CCC(NCC(C)(C)OC)CC4)c(C)c3c2C(C)C)cn2ncnc12 (stereo not drawn) [Example 206] |
|  | 7.7 nM | 437 nM |  |  | COc1cc(-c2[nH]c3cnc(C4CCC(NCC(C)(C)OC)CC4)c(C)c3c2C(C)C)cn2ncnc12 (stereo not drawn) [Example 207] |
